{
  "source": "paper PMC10824666",
  "about": "(Nature Cancer, 2023)",
  "assay_in_all_cases": "biochemical",
  "set-up_in_all_cases": "Eurofins DiscoverX kinase panel, competitive binding assay at 1 uM, percent of DMSO control",
  "conditions_in_all_cases": "competitive binding, percent of DMSO control",
  "key": {"p38 γ": {"target": "T1, p38 γ (Homo sapiens, UniProt P53778)", "T1 construct": "gene MAPK12", "T1 sequence (P53778 1-367)": "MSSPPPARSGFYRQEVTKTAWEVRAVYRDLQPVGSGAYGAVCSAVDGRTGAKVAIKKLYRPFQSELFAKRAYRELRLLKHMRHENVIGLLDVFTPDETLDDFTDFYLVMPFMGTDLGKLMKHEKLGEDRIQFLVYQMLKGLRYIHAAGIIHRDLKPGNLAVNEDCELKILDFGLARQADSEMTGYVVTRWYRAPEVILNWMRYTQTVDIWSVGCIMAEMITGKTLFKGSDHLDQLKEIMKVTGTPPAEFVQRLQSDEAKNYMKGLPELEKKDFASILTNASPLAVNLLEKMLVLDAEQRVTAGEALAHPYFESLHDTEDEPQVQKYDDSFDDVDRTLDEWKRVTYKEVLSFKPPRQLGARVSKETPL", "in_short": "(§1)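 Competitive binding assay across a 96-kinase panel with KIF18A compounds at 1 µM; values given as percentage of control (POC), single experiment.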"}, "Aurora 2": {"target": "T2, Aurora 2 (Homo sapiens, UniProt O14965)", "T2 construct": "gene AURKA", "T2 sequence (O14965 1-403)": "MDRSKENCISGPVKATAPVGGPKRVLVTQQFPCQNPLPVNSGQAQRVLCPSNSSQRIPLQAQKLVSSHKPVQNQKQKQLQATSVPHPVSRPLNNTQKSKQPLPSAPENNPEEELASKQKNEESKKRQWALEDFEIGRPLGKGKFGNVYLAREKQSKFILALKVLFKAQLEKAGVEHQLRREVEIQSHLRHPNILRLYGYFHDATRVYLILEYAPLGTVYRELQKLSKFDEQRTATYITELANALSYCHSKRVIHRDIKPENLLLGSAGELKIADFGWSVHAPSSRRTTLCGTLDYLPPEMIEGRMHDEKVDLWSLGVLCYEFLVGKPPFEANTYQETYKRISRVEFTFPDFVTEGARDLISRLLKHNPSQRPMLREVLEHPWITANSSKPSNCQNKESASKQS", "in_short": "as §1"}, "MSK1": {"target": "T3, MSK1 (Homo sapiens, UniProt O75582)", "T3 construct": "gene RPS6KA5", "T3 sequence (O75582 whole entry)": "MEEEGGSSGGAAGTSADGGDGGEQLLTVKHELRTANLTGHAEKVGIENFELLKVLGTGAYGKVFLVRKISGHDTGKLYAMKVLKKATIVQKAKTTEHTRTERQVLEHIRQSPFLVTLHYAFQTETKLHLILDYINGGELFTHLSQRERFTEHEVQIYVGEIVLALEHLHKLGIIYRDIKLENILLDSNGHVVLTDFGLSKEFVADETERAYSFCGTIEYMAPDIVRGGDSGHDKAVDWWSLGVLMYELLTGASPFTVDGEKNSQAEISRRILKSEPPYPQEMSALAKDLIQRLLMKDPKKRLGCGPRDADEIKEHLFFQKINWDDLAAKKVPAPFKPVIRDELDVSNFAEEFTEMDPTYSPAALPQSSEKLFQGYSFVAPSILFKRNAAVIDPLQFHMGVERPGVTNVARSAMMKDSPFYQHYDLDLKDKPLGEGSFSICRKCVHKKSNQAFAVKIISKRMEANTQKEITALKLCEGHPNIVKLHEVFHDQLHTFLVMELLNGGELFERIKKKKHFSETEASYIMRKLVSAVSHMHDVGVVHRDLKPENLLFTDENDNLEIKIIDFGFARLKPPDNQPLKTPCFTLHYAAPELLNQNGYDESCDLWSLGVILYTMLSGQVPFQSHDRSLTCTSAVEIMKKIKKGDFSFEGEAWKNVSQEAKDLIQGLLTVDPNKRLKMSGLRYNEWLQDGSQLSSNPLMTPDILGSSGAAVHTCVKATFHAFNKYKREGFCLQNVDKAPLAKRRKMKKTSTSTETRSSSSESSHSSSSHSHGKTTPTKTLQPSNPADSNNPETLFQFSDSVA", "in_short": "as §1"}, "MAP2K3": {"target": "T4, MAP2K3 (Homo sapiens, UniProt P46734)", "T4 sequence (P46734 1-347)": "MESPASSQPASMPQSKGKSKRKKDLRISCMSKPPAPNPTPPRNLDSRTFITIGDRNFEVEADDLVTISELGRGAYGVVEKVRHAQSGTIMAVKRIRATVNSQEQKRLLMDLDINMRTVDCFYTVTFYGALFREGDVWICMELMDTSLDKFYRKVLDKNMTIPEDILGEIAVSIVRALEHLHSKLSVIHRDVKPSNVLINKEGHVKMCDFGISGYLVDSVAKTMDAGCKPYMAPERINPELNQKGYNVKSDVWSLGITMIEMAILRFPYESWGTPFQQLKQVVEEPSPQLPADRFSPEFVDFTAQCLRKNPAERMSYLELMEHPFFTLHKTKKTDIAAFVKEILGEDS", "in_short": "as §1"}, "MAP4K4": {"target": "MAP4K4 (Homo sapiens, UniProt O95819)", "sequence (O95819 whole entry)": "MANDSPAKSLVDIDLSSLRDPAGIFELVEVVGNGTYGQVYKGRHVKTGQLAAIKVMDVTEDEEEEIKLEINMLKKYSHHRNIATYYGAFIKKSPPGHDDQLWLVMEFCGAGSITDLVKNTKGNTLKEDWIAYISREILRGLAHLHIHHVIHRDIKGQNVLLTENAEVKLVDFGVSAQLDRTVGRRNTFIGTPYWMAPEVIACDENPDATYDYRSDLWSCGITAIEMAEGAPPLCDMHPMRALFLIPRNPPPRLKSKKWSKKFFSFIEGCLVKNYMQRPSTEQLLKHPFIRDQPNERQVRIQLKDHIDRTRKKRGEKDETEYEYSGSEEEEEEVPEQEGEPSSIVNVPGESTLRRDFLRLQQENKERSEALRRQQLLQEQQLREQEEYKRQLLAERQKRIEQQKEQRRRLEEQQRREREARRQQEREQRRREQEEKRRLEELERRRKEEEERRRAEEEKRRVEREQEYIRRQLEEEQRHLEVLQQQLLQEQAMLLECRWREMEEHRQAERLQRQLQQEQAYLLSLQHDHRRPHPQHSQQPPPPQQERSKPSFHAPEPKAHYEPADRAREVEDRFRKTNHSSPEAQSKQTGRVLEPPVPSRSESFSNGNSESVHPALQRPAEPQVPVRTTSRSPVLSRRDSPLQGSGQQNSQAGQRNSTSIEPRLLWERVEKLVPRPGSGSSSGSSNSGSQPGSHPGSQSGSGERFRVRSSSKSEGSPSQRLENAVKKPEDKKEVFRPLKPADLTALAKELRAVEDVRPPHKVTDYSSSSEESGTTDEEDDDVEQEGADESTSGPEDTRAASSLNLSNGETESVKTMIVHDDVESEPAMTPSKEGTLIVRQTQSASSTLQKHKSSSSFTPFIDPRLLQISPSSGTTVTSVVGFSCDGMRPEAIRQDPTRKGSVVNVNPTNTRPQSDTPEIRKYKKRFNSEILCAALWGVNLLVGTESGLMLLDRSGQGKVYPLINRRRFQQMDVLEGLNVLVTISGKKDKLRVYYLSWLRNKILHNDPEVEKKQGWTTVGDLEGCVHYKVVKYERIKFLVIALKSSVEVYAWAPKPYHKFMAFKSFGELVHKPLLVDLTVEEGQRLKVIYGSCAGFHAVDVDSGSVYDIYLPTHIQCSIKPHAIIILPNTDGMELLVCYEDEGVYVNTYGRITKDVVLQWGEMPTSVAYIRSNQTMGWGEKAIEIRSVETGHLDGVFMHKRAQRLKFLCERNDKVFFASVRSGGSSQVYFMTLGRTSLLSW", "in_short": "as §1"}, "RSK 1": {"target": "T5, RSK 1 (Homo sapiens, UniProt Q15418)", "T5 construct": "gene RPS6KA1", "T5 sequence (Q15418 whole entry)": "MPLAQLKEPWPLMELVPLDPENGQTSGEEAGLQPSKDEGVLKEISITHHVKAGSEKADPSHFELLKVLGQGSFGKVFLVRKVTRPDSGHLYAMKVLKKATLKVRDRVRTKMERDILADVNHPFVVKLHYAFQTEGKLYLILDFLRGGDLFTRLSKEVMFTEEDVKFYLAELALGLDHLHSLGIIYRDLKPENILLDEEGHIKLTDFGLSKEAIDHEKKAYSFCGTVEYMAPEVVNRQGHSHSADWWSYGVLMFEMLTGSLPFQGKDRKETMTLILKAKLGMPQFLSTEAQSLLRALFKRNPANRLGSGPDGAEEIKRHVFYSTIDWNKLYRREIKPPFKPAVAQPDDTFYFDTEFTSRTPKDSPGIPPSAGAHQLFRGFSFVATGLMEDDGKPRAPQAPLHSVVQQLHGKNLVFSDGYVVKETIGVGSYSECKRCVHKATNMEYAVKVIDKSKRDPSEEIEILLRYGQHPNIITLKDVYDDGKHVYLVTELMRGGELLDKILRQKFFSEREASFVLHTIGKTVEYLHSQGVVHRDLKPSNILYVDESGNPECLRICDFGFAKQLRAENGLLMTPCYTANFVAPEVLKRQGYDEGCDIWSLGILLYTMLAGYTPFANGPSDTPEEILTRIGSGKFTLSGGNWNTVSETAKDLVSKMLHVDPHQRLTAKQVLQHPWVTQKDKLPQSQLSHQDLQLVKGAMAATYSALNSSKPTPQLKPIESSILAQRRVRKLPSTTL", "in_short": "as §1"}, "[1]": {"conditions": "read-out: Kinome Profiling performed by Eurofins DiscoverX / AM-1882, 1.0 µM / POC"}, "[2]": {"conditions": "read-out: Kinome Profiling performed by Eurofins DiscoverX / AM-0277, 1.0 µM / POC"}, "[3]": {"conditions": "read-out: Kinome Profiling performed by Eurofins DiscoverX / AM-5308, 1.0 µM / POC"}},
  "note": "Where two headings read alike, the source gives them in different places.",
  "data": [
    {"smiles": "CC(C)(C)NS(=O)(=O)c1cccc(NC(=O)c2ccc(S(=O)(=O)NC(C)(C)C)cc2N2CCC3(CC2)CC3)c1", "note": "[AM-1882]", "values": [
      {"measurement": "remaining activity at 1 µM", "setting": "p38 γ; [1]", "value": 100, "unit": "%"},
      {"measurement": "remaining activity at 1 µM", "setting": "Aurora 2; [1]", "value": 100, "unit": "%"},
      {"measurement": "remaining activity at 1 µM", "setting": "MSK1; [1]", "value": 100, "unit": "%"},
      {"measurement": "remaining activity at 1 µM", "setting": "MAP2K3; [1]", "value": 67, "unit": "%"},
      {"measurement": "remaining activity at 1 µM", "setting": "MAP4K4; [1]", "value": 95, "unit": "%"},
      {"measurement": "remaining activity at 1 µM", "setting": "RSK 1; [1]", "value": 100, "unit": "%"}
    ]},
    {"smiles": "CC(C)(CO)Nc1ccc(C(=O)Nc2cccc(S(=O)(=O)C3CCCC3)c2)c(N2CCC3(CC2)CC3)n1", "note": "[AM-0277]", "values": [
      {"measurement": "remaining activity at 1 µM", "setting": "p38 γ; [2]", "value": 100, "unit": "%"},
      {"measurement": "remaining activity at 1 µM", "setting": "Aurora 2; [2]", "value": 100, "unit": "%"},
      {"measurement": "remaining activity at 1 µM", "setting": "MSK1; [2]", "value": 94, "unit": "%"},
      {"measurement": "remaining activity at 1 µM", "setting": "MAP2K3; [2]", "value": 96, "unit": "%"},
      {"measurement": "remaining activity at 1 µM", "setting": "MAP4K4; [2]", "value": 100, "unit": "%"},
      {"measurement": "remaining activity at 1 µM", "setting": "RSK 1; [2]", "value": 100, "unit": "%"}
    ]},
    {"smiles": "C[C@@H]1CN(c2cccc(NC(=O)c3ccc(NS(=O)(=O)CCO)cc3N3CCC4(CC3)CC4)n2)CCO1", "note": "[AM-5308]", "values": [
      {"measurement": "remaining activity at 1 µM", "setting": "p38 γ; [3]", "value": 76.5, "unit": "%"},
      {"measurement": "remaining activity at 1 µM", "setting": "Aurora 2; [3]", "value": 100, "unit": "%"},
      {"measurement": "remaining activity at 1 µM", "setting": "MSK1; [3]", "value": 91.5, "unit": "%"},
      {"measurement": "remaining activity at 1 µM", "setting": "MAP2K3; [3]", "value": 88.5, "unit": "%"},
      {"measurement": "remaining activity at 1 µM", "setting": "MAP4K4; [3]", "value": 75, "unit": "%"},
      {"measurement": "remaining activity at 1 µM", "setting": "RSK 1; [3]", "value": 91.5, "unit": "%"}
    ]}
  ]
}
